Laboratory results taken from EP4810052A2, “HCRHR2 SELECTIVE POLYPEPTIDES” (Gubra A/S, priority 2023, dated 2026).
Like-named read-outs stand apart in the source and are kept apart here. Marks after values point to notes of the source that are not given here. Starred links: 1 amine or outer side, 2 acyl side, 3 side chain; linkers in the order of their positions; H or OH if unused. Non-standard residues stand in square brackets, D forms with d. Residues, ends and D or L forms follow the SMILES beside them. Groups on a side chain read outwards from the residue. *: point of attachment. C20 diacid = O=C(O)CCCCCCCCCCCCCCCCCCC(=O)*; γGlu = O=C(O)[C@H](CCC(=O)[*:2])N[*:1]; NMeI = CC[C@H](C)[C@H](NC)C(=O)O; Nle = CCCC[C@H](N)C(=O)O; AEEA = NCCOCCOCC(=O)O; Aib = CC(C)(N)C(=O)O

Legend:
[1] = Effect on acute food intake in mice; format: in vivo; details: single subcutaneous dose
How it was run: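 Male NMRI mice (n=7-8 per group) were fasted from six hours before the dark phase. They received a single subcutaneous peptide dose one hour before dark onset. Hourly food intake was monitored for 72 h and expressed as percent reduction versus vehicle, analysed by one-way ANOVA with Dunnett's test.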

hCRHR2 = target: T1, hCRHR2 (Homo sapiens, UniProt Q13324); test: HTRF cAMP assay, determination of hCRHR2 potency (peptide libraries 5 conc., purified peptides 11 conc.); format: cell-based
T1 sequence (Q13324 1-411): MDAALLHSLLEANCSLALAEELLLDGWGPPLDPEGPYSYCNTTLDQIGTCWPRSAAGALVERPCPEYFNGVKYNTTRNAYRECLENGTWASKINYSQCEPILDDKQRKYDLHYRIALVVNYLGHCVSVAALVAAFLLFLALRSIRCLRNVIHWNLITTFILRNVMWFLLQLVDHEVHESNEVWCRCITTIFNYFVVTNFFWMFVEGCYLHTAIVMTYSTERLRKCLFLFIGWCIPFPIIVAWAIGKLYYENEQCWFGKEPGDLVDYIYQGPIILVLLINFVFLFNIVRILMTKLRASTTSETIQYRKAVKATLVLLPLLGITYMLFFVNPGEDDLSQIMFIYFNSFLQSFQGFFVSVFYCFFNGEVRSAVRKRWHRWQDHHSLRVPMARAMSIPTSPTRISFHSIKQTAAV
How it was run: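 CHO-K1 cells stably expressing human CRHR2, thawed from frozen stocks just before use and run in suspension; cAMP measured by competitive HTRF immunoassay (cryptate anti-cAMP, d2-cAMP). Agonist peptides tested at 5 (libraries) or 11 (purified) concentrations; EC50 from sigmoid variable-slope nonlinear regression.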

hCRHR1 = target: T2, hCRHR1 (Homo sapiens, UniProt P34998); test: HTRF cAMP assay, determination of hCRHR1 potency (peptide libraries 5 conc., purified peptides 11 conc.); format: cell-based
T2 sequence (P34998 24-415): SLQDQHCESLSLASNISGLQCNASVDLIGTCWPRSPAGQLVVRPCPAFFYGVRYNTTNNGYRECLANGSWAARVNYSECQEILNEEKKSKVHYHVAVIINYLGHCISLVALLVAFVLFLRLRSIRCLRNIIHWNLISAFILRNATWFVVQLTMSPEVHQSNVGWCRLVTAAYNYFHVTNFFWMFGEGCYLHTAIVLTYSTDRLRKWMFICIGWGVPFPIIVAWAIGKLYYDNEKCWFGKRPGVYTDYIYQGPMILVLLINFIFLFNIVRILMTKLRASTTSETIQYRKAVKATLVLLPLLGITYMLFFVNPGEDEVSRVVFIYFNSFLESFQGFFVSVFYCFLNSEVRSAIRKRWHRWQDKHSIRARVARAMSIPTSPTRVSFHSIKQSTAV
How it was run: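 CHO-K1 cells stably expressing human CRHR1, thawed from frozen stocks just before use, were stimulated in suspension with agonist peptides. cAMP was measured by HTRF competitive immunoassay (cryptate anti-cAMP antibody vs d2-cAMP).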

PK in rats = format: in vivo; parameters: T½ / MRT: unit not given here; details: for half-life: read-out: T½ (converted)
How it was run: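 Lean male Sprague Dawley rats (n = 3 per group) got a two-peptide combination at 50 nmol/kg IV and SC. Plasma was sampled from 0.17 to 96 h post dose and analysed by LC-MSMS. PK parameters came from non-compartmental analysis.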

[2] = male, Sprague Dawley (RJHan:SD), in vivo, iv, Rat, 50 nmol/kg i.v.
[3] = male, Sprague Dawley (RJHan:SD), in vivo, sc, Rat, 50 nmol/kg s.c.

CCCC[C@H](NC(=O)[C@@H](NC(=O)[C@H](CCC(=O)O)NC(=O)C(C)(C)NC(=O)[C@H](CC(N)=O)NC(=O)[C@@H](NC(=O)[C@H](CCCCNC(=O)COCCOCCNC(=O)COCCOCCNC(=O)CC[C@H](NC(=O)CC[C@H](NC(=O)CCCCCCCCCCCCCCCCCCC(=O)O)C(=O)O)C(=O)O)NC(=O)[C@H](C)NC(=O)[C@H](CCC(N)=O)NC(=O)[C@H](CCC(=O)O)NC(=O)[C@H](CCCNC(=N)N)NC(=O)[C@H](C)NC(=O)[C@H](C)NC(=O)[C@H](CCCNC(=N)N)NC(=O)[C@H](C)NC(=O)[C@H](CCCNC(=N)N)NC(=O)[C@H](C)NC(=O)[C@H](CCC(N)=O)NC(=O)[C@H](CO)NC(=O)[C@H](CC(C)C)NC(=O)[C@H](CC(C)C)NC(=O)[C@@H](NC(=O)[C@H](CCC(N)=O)NC(=O)[C@H](CC(C)C)NC(=O)[C@H](CC(C)C)NC(=O)CNC(=O)[C@@H](NC(=O)[C@@H]1CCCN1C(=O)[C@@H](NC(=O)[C@H](CC(=O)O)NC(=O)[C@H](CC(C)C)NC(=O)[C@H](CO)NC(=O)[C@H](CC(C)C)NC(=O)[C@@H](NC(=O)[C@@H](NC)[C@@H](C)CC)C(C)C)C(C)C)[C@@H](C)CC)[C@@H](C)CC)[C@@H](C)O)[C@@H](C)CC)C(=O)N[C@@H](C)C(=O)N[C@@H](CCC(=O)O)C(=O)N[C@H](C(N)=O)C(C)C [SEQ ID NO: 215] (H-[NMeI]VLSLDVPIGLLQILLSQARARAAREQAK([AEEA-AEEA-γGlu-γGlu-C20 diacid])TN[Aib]EI[Nle]AEV-NH2)
% FI compared to vehicle, 24 h post-dosing ([1]; 30 nmol/kg): 38.67*** %
% FI compared to vehicle, 24 h post-dosing ([1]; 100 nmol/kg): 20.26*** %
% FI compared to vehicle, 24 h post-dosing ([1]; 300 nmol/kg): 10.31*** %
Solubility pH 6.5 (mg/ml) (pH 6.5): 19.6 mg/ml
Solubility pH 7.0 (mg/mL) (pH 7): 20.6 mg/mL
Solubility pH 7.5 (mg/mL) (pH 7.5): 17.7 mg/mL
Solubility pH 7.5 + phenol (mg/mL) (pH 7.5): 18.0 mg/mL
Solubility pH 7.5, target conc. =10 mg/mL (measured mg/mL) (pH 7.5): 12 mg/mL
EC50 (hCRHR2; Table 4, library peptides having X^38 = Nle, read-out: hCRHR2 pEC50 (converted)): 25.1 pM
Selectivity ratio (hCRHR1/ hCRHR2) (hCRHR2; Table 5): >5747
EC50 (hCRHR2; Table 5, purified peptides, read-out: hCRHR2 EC50): 870 pM
EC50 (hCRHR1; Table 4, library peptides having X^38 = Nle, read-out: hCRHR1 pEC50 (converted)): 3160 nM
EC50 (hCRHR1; Table 5, purified peptides, read-out: hCRHR1 EC50): > 5000 nM
EC50 (hCRHR1; stable cell system, Table 10, read-out: Stable EC50 (nM) hCRHR 1): > 5000 nM
MRT (PK in rats; Rat): 6.7
T½ (PK in rats; Rat): 5.7
clearance (PK in rats; [2]): 0.2 mL/min/kg
half-life (PK in rats; [2]): 5.7 h
Cmax (PK in rats; [3]): 42 nM
Tmax (PK in rats; [3]): 24 h
half-life (PK in rats; [3]): 6.1 h
bioavailability (PK in rats; male, Sprague Dawley, rat, in vivo, sc): 28%
